Assay results published in ChEMBL document CHEMBL1201862, “PubChem BioAssay data set” (2004).
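Following 48 hours of exposure in 96-well plates, responses at five concentrations were used to interpolate endpoints linearly. Abbreviation: GI50, concentration required for 50% inhibition of growth.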 Calls of active or inactive are those of the source. Rule as the data show it: active = GI50 up to about 1.1 µM and inactive = higher.

Columns and labels:
Experiment in all cases: NCI tumour cell line growth inhibition, 48 h
[1] = test system: COLO 205
[2] = test system: NCI-H226
[3] = test system: SNB-19
[4] = test system: A549
[5] = test system: K562
[6] = test system: MCF7
[7] = test system: DU-145
[8] = test system: T47D
[9] = test system: Malme-3M
[10] = test system: UO-31
[11] = test system: UACC-62
[12] = test system: SK-OV-3
[13] = test system: SN12C
[14] = test system: HCT-15
[15] = test system: OVCAR-8
[16] = test system: HCC 2998
[17] = test system: SNB-75
[18] = test system: M14
[19] = test system: HL-60
[20] = test system: HOP-62
[21] = test system: HCT-116
[22] = test system: HOP-92
[23] = test system: ACHN
[24] = test system: HT-29
[25] = test system: UACC-257
[26] = test system: NCI-H460
[27] = test system: SR
[28] = test system: SF-295
[29] = test system: U-251
[30] = test system: SF-268
[31] = test system: CCRF-CEM
[32] = test system: IGROV-1
[33] = test system: EKVX
[34] = test system: SK-MEL-5
[35] = test system: OVCAR-4
[36] = test system: OVCAR-3
[37] = test system: MDA-MB-231
[38] = test system: NCI/ADR-RES
[39] = test system: MOLT-4
[40] = test system: NCI-H23
[41] = test system: RPMI-8226
[42] = test system: MDA-MB-435
[43] = test system: PC-3
[44] = test system: MDA-N
[45] = test system: SW-620
[46] = test system: SK-MEL-28
[47] = test system: BT-549
[48] = test system: LOX IMVI
[49] = test system: A498
[50] = test system: OVCAR-5
[51] = test system: 786-0
[52] = test system: TK-10

O=C(O)C1SCCS1
GI50 [1]: > 100 µM (inactive) | GI50 [2]: > 100 µM (inactive) | GI50 [3]: > 100 µM (inactive) | GI50 [4]: > 100 µM (inactive) | GI50 [5]: > 100 µM (inactive) | GI50 [6]: > 100 µM (inactive) | GI50 [7]: > 100 µM (inactive) | GI50 [8]: > 100 µM (inactive) | GI50 [9]: > 100 µM (inactive) | GI50 [10]: > 100 µM (inactive) | GI50 [11]: > 100 µM (inactive) | GI50 [12]: > 100 µM (inactive) | GI50 [13]: > 100 µM (inactive) | GI50 [14]: > 100 µM | GI50 [15]: > 100 µM (inactive) | GI50 [16]: > 100 µM (inactive) | GI50 [17]: > 100 µM (inactive) | GI50 [18]: > 100 µM (inactive) | GI50 [19]: > 100 µM (inactive) | GI50 [20]: > 100 µM (inactive) | GI50 [21]: > 100 µM (inactive) | GI50 [22]: > 100 µM (inactive) | GI50 [23]: > 100 µM (inactive) | GI50 [24]: > 100 µM (inactive) | GI50 [25]: > 100 µM (inactive) | GI50 [26]: > 100 µM (inactive) | GI50 [27]: > 100 µM (inactive) | GI50 [28]: > 100 µM (inactive) | GI50 [29]: > 100 µM (inactive) | GI50 [30]: > 100 µM (inactive) | GI50 [31]: > 100 µM (inactive) | GI50 [32]: > 100 µM (inactive) | GI50 [33]: > 100 µM (inactive) | GI50 [34]: > 100 µM (inactive) | GI50 [35]: 31.8 µM (inactive) | GI50 [36]: > 100 µM (inactive) | GI50 [37]: > 100 µM (inactive) | GI50 [38]: > 100 µM (inactive) | GI50 [39]: > 100 µM (inactive) | GI50 [40]: > 100 µM (inactive) | GI50 [41]: > 100 µM (inactive) | GI50 [42]: > 100 µM (inactive) | GI50 [43]: > 100 µM (inactive) | GI50 [44]: > 100 µM (inactive) | GI50 [45]: > 100 µM (inactive) | GI50 [46]: > 100 µM (inactive) | GI50 [47]: > 100 µM (inactive) | GI50 [48]: > 100 µM (inactive) | GI50 [49]: > 100 µM (inactive) | GI50 [50]: > 100 µM (inactive) | GI50 [51]: > 100 µM (inactive) | GI50 [52]: > 100 µM (inactive)
